Source: ChEMBL document CHEMBL1146235, “Rationally designed dual inhibitors of HIV reverse transcriptase and integrase” (J Med Chem, 2007)

What was measured:
[1] = molecular target: Human immunodeficiency virus type 1 reverse transcriptase (Human immunodeficiency virus 1, UniProt Q72547); assay: Inhibition of HIV1 reverse transcriptase
[2] = molecular target: Human immunodeficiency virus type 1 integrase (Human immunodeficiency virus 1, UniProt Q7ZJM1); assay: Inhibition of HIV1 integrase expressed in Escherichia coli BL21 (DE3)
[3] = Cytotoxicity against human PBMC; format: cell-based; conditions: PBMC (peripheral blood mononuclear cells)
[4] = Theraputc index, ratio of CC50 of PBMC cells to EC50 of HIV1 NL4-3; format: ADME, cell-based; conditions: read-out: Ratio CC50/EC50
[5] = system: Human immunodeficiency virus 1; assay: Antiviral activity against HIV1 NL4-3 in human PBMC; format: functional, organism-based; conditions: Human immunodeficiency virus 1, NL4.3
[6] = system: Human immunodeficiency virus 1; assay: Antiviral activity against HIV1 3B in CEM-SS cells by cytoprotection assay; format: functional; design: concentration or dose not given beside the values
[7] = Cytotoxicity against CEM-SS cells assessed as cell viability; format: cell-based; conditions: human, read-out: Activity

Human immunodeficiency virus type 1 integrase, sequence (Q7ZJM1 whole entry): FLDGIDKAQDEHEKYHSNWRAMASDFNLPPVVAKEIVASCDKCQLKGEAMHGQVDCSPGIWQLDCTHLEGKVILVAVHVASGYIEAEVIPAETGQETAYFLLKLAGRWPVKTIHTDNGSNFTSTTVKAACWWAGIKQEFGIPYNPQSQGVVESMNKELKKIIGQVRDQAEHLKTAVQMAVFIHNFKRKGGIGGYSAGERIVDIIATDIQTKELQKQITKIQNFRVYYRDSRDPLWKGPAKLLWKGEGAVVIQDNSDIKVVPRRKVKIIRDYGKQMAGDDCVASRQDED

Row | SMILES | IC50 [1] [µM] | IC50 [2] [µM] | CC50 [3] [µM] | selectivity ratio [4] | EC50 [5] [µM] | Activity [6] [%] | viability [7] [%]
1 | O=C(Nc1ccc2c(O)c(/N=N/c3ccc(C(=O)O)cc3)c(S(=O)(=O)O)cc2c1)Nc1ccc2c(O)c(/N=N/c3ccc(C(=O)O)cc3)c(S(=O)(=O)O)cc2c1 | 0.39 | 0.7 | – | – | – | – | –
2 | O=[N+]([O-])c1ccc(C2c3c(O)nc(S)nc3Oc3nc(S)nc(O)c32)cc1 | 4.8 | 0.3 | 120 | 14 | – | – | –
3 | O=C(O)/C(O)=C/C(=O)c1cccc(Cc2ccccc2)c1 | > 100 | – | > 10 | – | 0.16 | – | –
4 | Cc1cc(C)cc(Cc2c(C(C)C)c(=O)[nH]c(=O)n2COCc2ccc(C(=O)/C=C(\O)C(=O)O)cc2)c1 | 0.0092 | 7.67 | > 10 | > 600 | 0.017 | 100 | 100
5 | CCc1c(Cc2cc(C)cc(C)c2)n(COCc2ccc(C(=O)/C=C(\O)C(=O)O)cc2)c(=O)[nH]c1=O | 0.0242 | 4.44 | > 10 | > 1000 | 0.0097 | 100 | 100
6 | CCc1c(Cc2ccccc2)n(COCc2ccc(C(=O)/C=C(\O)C(=O)O)cc2)c(=O)[nH]c1=O | 0.235 | 1.82 | > 10 | > 190 | 0.052 | 95.2 | 91
7 | CC(C)c1c(Cc2ccccc2)n(COCc2ccc(C(=O)/C=C(\O)C(=O)O)cc2)c(=O)[nH]c1=O | 0.057 | 2.41 | > 10 | > 310 | 0.033 | 100 | 90
8 | O=Cc1ccc(-c2cc(-c3cccc(C=O)c3)c(O)c(O)c(=O)c2O)cc1 | 1.2 | 1.1 | 6 | 2 | 3 | – | –
9 | CC(C)c1c(Cc2ccccc2)n(COCc2ccccc2)c(=O)[nH]c1=O | 0.016 | > 100 | > 10 | > 160 | 0.016 | – | –
